Consider 16 compounds from US9249127B2 (Orion Corporation, priority 2012, dated 2016).

Read-outs that look alike come from different tables or passages of the source.

The test has as its target T1, alpha2A receptor (Homo sapiens, UniProt P08913).
T1 sequence (P08913 1-465): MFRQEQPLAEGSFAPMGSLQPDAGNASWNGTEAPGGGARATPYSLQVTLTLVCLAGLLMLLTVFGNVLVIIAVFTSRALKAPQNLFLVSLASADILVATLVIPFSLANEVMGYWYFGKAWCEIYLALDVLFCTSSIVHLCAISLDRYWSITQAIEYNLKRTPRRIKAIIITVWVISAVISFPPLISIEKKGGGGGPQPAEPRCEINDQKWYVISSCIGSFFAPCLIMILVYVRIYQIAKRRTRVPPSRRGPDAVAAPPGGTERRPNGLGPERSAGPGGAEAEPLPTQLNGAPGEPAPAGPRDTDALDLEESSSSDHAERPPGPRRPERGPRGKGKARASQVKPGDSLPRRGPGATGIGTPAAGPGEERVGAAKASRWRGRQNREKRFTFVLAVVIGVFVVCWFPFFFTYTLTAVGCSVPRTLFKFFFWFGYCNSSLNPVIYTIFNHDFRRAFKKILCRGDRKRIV
As to the kind of experiment: Alpha2A agonistic activity in vitro. The format is cell-based.

The mark [1] stands for this setting: Alpha2A Agonism pEC50, in vitro.
Setting [2] is: in vitro, read-out: Alpha2A Agonism pEC50 (converted).

Consider `Cc1cc(C)c2c(c1)C(C1=NCCN1)OCC2` (centres unmarked) [Example 59, 2-(5,7-Dimethylisochroman-1-yl)-4,5-dihydro-1H-imidazole], for which the EC50 under setting [1] is 39.8 nM. Further, the “Alpha2A Intrinsic Activity” value (in vitro) is listed as 0.81.
Consider `CCc1cccc2c1C[C@@H](CC)OC2C1=NCCN1` (stereo partly drawn) [Example 47, 2-((3R)-3,5-diethylisochroman-1-yl)-4,5-dihydro-1H-imidazole], for which the “Alpha2A Intrinsic Activity” value (in vitro) came to 0.22. In addition, the EC50 under setting [2] is 2000 nM.
`c1cc2c3c(cccc3c1)C(C1=NCCN1)OC2` (centres unmarked) [Example 102, 2-(1,3-Dihydrobenzo[de]isochromen-1-yl)-4,5-dihydro-1H-imidazole] showed an EC50 under setting [1] of 2.51 nM. Moreover, for the setting “in vitro”, the “Alpha2A Intrinsic Activity” value is 0.82.
For the compound `Cc1cccc2c1CC(C)OC2C1=NCCN1` (centres unmarked) [Example 25, 2-(3,5-Dimethylisochroman-1-yl)-4,5-dihydro-1H-imidazole], the EC50 under setting [1] was 3.16 nM. Where the note is “in vitro”, the “Alpha2A Intrinsic Activity” value stood at 0.82.
`Cc1cccc2c1CC(CCF)OC2C1=NCCN1` (centres unmarked) [Example 81, 2-(3-(2-Fluoroethyl)-5-methylisochroman-1-yl)-4,5-dihydro-1H-imidazole]: the “Alpha2A Intrinsic Activity” value (in vitro) was 0.54. For the same compound, under setting [2], the EC50 is 158 nM.
`CC[C@@H]1Cc2c(C)cccc2C(C2=NCCN2)O1` (stereo partly drawn) [Example 48, 2-((3R)-3-ethyl-5-methylisochroman-1-yl)-4,5-dihydro-1H-imidazole] had an EC50 under setting [1] of 25.1 nM. Further, where the note is “in vitro”, the “Alpha2A Intrinsic Activity” value came to 0.58.
Consider `CC1(C2=NCCN2)OCCc2c(C3CC3)cccc21` (centres unmarked) [Example 24], for which, where the note is “in vitro”, the “Alpha2A Intrinsic Activity” value amounted to 0.20. The EC50 under setting [2] is 794 nM.
On the same counts, the results for `CC(C)c1cccc2c1CCOC2C1=NCCN1` (centres unmarked) [Example 41, 2-(5-Isopropylisochroman-1-yl)-4,5-dihydro-1H-imidazole] are 0.27 and 251 nM.
Consider `C[C@@H]1Cc2c(Br)cccc2C(C2=NCCN2)O1` (stereo partly drawn) [Example 32, 2-((3R)-5-bromo-3-methylisochroman-1-yl)-4,5-dihydro-1H-imidazole], for which, under setting [1], the EC50 was 1 nM. The “Alpha2A Intrinsic Activity” value (in vitro) is 0.92.
For `CC1(C2=NCCN2)OCc2cccc3cccc1c23` (centres unmarked) [Example 98, 2-(1-Methyl-1,3-dihydrobenzo[de]isochromen-1-yl)-4,5-dihydro-1H-imidazole], in that order: 12.6 nM and 0.58.
`CC1Cc2c(Cl)cccc2C(C)(C2=NCCN2)O1` (centres unmarked) [Example 28, 2-(5-Chloro-1,3-dimethylisochroman-1-yl)-4,5-dihydro-1H-imidazole]: for the setting “in vitro”, the “Alpha2A Intrinsic Activity” value came out at 0.64. Besides, under setting [2], the EC50 was 1000 nM.
With `CC[C@@H]1Cc2c(cccc2C(F)(F)F)C(C2=NCCN2)O1` (stereo partly drawn) [Example 16, 2-((3R)-3-ethyl-5-(trifluoromethyl)isochroman-1-yl)-4,5-dihydro-1H-imidazole], the “Alpha2A Intrinsic Activity” value (in vitro) is reported as 0.51. The EC50 under setting [2] is 50.1 nM.
`CC1(C2=NCCN2)OCc2cccc3cccc1c23` (single isomer, unassigned) [Example 103, 2-(1-methyl-1,3-dihydrobenzo[de]isochromen-1-yl)-4,5-dihydro-1H-imidazole] gave an EC50 under setting [1] of 6.31 nM. In addition, where the note is “in vitro”, the “Alpha2A Intrinsic Activity” value was found to be 0.74.
With `CC1OC(C2=NCCN2)c2cccc3cccc1c23` (centres unmarked) [Example 104, 2-(3-Methyl-1,3-dihydrobenzo[de]isochromen-1-yl)-4,5-dihydro-1H-imidazole], the EC50 under setting [1] is 3.16 nM. In addition, the “Alpha2A Intrinsic Activity” value (in vitro) was found to be 0.95.
As for `Cc1cccc2c1CCOC2(C)C1=NCCN1` (centres unmarked) [Example 3, 2-(1,5-Dimethylisochroman-1-yl)-4,5-dihydro-1H-imidazole], the EC50 under setting [1] was 63.1 nM. Moreover, the “Alpha2A Intrinsic Activity” value (in vitro) amounted to 0.95.
Under setting [1], `CCC1Cc2c(OC)cccc2C(C2=NCCN2)O1` (centres unmarked) [Example 46, 2-(3-Ethyl-5-methoxyisochroman-1-yl)-4,5-dihydro-1H-imidazole] showed an EC50 of 79.4 nM. For the same compound, the “Alpha2A Intrinsic Activity” value (in vitro) was 0.45.
